Experimental data from patent publication EP0355842A2, “External preparation” (Sansho Seiyaku Co., Ltd., priority 1988, dated 1990).

Test system: B16 cells
Assay: Melanin-production test of B16 cells
Type: cell-based, mouse
Settings: evaluated concentration 80 µM; culture for 5 days
Procedure: Experimental Example: Melanin-production test of B16 cells
B16 cells (4 x 10⁴) derived from mouse melanoma are suspended in Eagle MBM medium containing bovine fetal serum (10 ml) for culture in the presence of 5% CO₂ at 37°C in 25-cm³ Rou bottle. At day 0 and 3, the medium is replaced for a medium containing each of the above substances of 80 µM/l or 60 µM/l to continue the culture for 5 days. The cells washed with phosphate buffer (pH 7.2) containing 0.8 W/V NaCl, were separated using the solution containing trypsin and EDTA, and filtered to recover the cells. The cells recovered on the filter were measured of their reflection luminous intensity (degree of darkness) at 500 nm with a densitometer.

Number of cells	Compound	Melanin levels
2.2 × 10^4 cells	2-Monopentadecenoin	0.1 µg/10^6 cells
2.4 × 10^4 cells	CCC=CCCCCCCCC(=O)OCC(CO)OC(=O)CCCCCCCC=CCC (stereo not drawn) [1,2-Didodecenoin]	4.0 µg/10^6 cells
2.5 × 10^4 cells	CCCC/C=C\CCCCCCCC(=O)OCC(CO)OC(=O)CCCCCCC/C=C\CCCC (stereo not drawn) [1,2-Dimyristolein]	2.8 µg/10^6 cells
2.2 × 10^4 cells	CCCCCC/C=C\CCCCCCCC(=O)OCC(CO)OC(=O)CCCCCCC/C=C\CCCCCC (stereo not drawn) [1,2-Dipalmitolein]	0.1 µg/10^6 cells
2.5 × 10^4 cells	CCCCC=CCCCCCCCCC(=O)OCC(CO)OC(=O)CCCCCCCCC=CCCCC (stereo not drawn) [1,2-Dipentadecenoin]	0.1 µg/10^6 cells
2.0 × 10^4 cells	CCCC/C=C\CCCCCCCC(=O)OCC(O)COC(=O)CCCCCCC/C=C\CCCC [1,3-Dimyristoelin]	1.2 µg/10^6 cells
2.1 × 10^4 cells	CCCCCC/C=C\CCCCCCCC(=O)OCC(O)COC(=O)CCCCCCC/C=C\CCCCCC [1,3-Dipalmitolein]	0.1 µg/10^6 cells
2.1 × 10^4 cells	CCCCC=CCCCCCCCCC(=O)OCC(O)COC(=O)CCCCCCCCC=CCCCC (stereo not drawn) [1,3-Dipentadecenoin]	0.2 µg/10^6 cells
2.1 × 10^4 cells	CCCCCCC=CCCCCCCCCC(=O)OCC(O)COC(=O)CCCCCCCCC=CCCCCCC (stereo not drawn) [1,3-Heptadecenoin]	1.2 µg/10^6 cells
2.7 × 10^4 cells	CCC=CCCCCCCCC(=O)OCC(O)CO (stereo not drawn) [1-Monododecenoin]	4.2 µg/10^6 cells
2.0 × 10^4 cells	CCCCCCC=CCCCCCCCCC(=O)OCC(O)CO (stereo not drawn) [1-Monoheptadecenoin]	0.4 µg/10^6 cells
2.5 × 10^4 cells	CCCC/C=C\CCCCCCCC(=O)OCC(O)CO (stereo not drawn) [1-Monomyristolein]	2.2 µg/10^6 cells
2.6 × 10^4 cells	CC=CCCCCC(=O)OCC(O)CO (stereo not drawn) [1-Monooctenoin]	4.5 µg/10^6 cells
2.2 × 10^4 cells	CCCCCC/C=C\CCCCCCCC(=O)OCC(O)CO (stereo not drawn) [1-Monopalmitolein]	0.1 µg/10^6 cells
2.4 × 10^4 cells	CCCCC=CCCCCCCCCC(=O)OCC(O)CO (stereo not drawn) [1-Monopentadecenoin]	0.1 µg/10^6 cells
2.7 × 10^4 cells	CC=CC(=O)O [2-Butenoic acid]	4.6 µg/10^6 cells
2.2 × 10^4 cells	CCCCCCC=CCCCCCCCCC(=O)OC(CO)CO [2-Monoheptadecenoin]	0.3 µg/10^6 cells
2.4 × 10^4 cells	CCC=CCC(=O)OC(CO)CO [2-Monohexenoin]	4.3 µg/10^6 cells
2.1 × 10^4 cells	CCCCCC/C=C\CCCCCCCC(=O)OC(CO)CO [2-Monopalmitolein]	0.1 µg/10^6 cells
2.5 × 10^4 cells	CCCC=CCCCCCC(=O)OC(CO)CO [2-Monoundecenoin]	3.9 µg/10^6 cells
2.5 × 10^4 cells	CCCC=CCC=CCC=CCCCCC(=O)O [6,9,12-Hexadecatrienoic acid]	0.1 µg/10^6 cells
2.5 × 10^4 cells	CCC=CCC=CCCCCC(=O)O [6,9-Dodecadienoic acid]	4.4 µg/10^6 cells

Number of cells	Compound	Melanin levels
2.4 × 10^4 cells	CCCCCCC=CCC=CCCCCC(=O)O [6,9-Hexadecadienoic acid]	0.1 µg/10^6 cells
2.5 × 10^4 cells	CCCCC=CCC=CCCCCC(=O)O [6,9-Tetradecadienoic acid]	0.3 µg/10^6 cells
2.6 × 10^4 cells	CCCC=CCCCCC(=O)O [6-Decenoic acid]	4.8 µg/10^6 cells
2.6 × 10^4 cells	CC=CCCCCC(=O)O [6-Octenoic acid]	4.7 µg/10^6 cells
2.6 × 10^4 cells	CCCCC=CCC=CCCCCCC(=O)O [7,10-Pentadecadienoic acid]	0.1 µg/10^6 cells
2.4 × 10^4 cells	CCC=CCC=CCCCCCC(=O)O [7,10-Tridecadienoic acid]	3.2 µg/10^6 cells
2.7 × 10^4 cells	CCCC=CCCCCCC(=O)O [7-Undecenoic acid]	4.7 µg/10^6 cells
2.7 × 10^4 cells	CCC=CCCCCCCCC(=O)O [9-Dodecenoic acid]	4.6 µg/10^6 cells
2.5 × 10^4 cells	CCCCC=CCCCCCCCC(=O)O [9-Tetradecenoic acid]	0.3 µg/10^6 cells
2.5 × 10^4 cells	CCCCCCC=CCCCCCCCCC(=O)OC [10-Heptadecenoic acid methyl]	2.0 µg/10^6 cells
2.6 × 10^4 cells	CCCCCCC=CCCCCCCCCC(=O)O [10-Heptadecenoic acid]	0.5 µg/10^6 cells
2.7 × 10^4 cells	CCCCC=CCCCCCCCCC(=O)OC [10-Pentadecenoic acid methyl]	0.1 µg/10^6 cells
2.6 × 10^4 cells	CCCCC=CCCCCCCCCC(=O)O [10-Pentadecenoic acid]	0.1 µg/10^6 cells
2.7 × 10^4 cells	CCC=CCCCCCCCCC(=O)O [10-Tridecenoic acid]	3.0 µg/10^6 cells
2.7 × 10^4 cells	CCCCCC/C=C/CCCCCCCC(=O)OC[C@H](COP(=O)([O-])OCC[N+](C)(C)C)OC(=O)CCCCCCC/C=C/CCCCCC [L-α-Lecithin dipalmitoelaidoyl]	3.8 µg/10^6 cells
2.8 × 10^4 cells	CCCCCC/C=C\CCCCCCCC(=O)OC[C@H](COP(=O)([O-])OCC[N+](C)(C)C)OC(=O)CCCCCCC/C=C\CCCCCC [L-α-Lecithin dipalmitoleyl]	3.9 µg/10^6 cells
2.6 × 10^4 cells	CCCC/C=C\CCCCCCCC(=O)OC [Myristoleic acid methyl]	1.2 µg/10^6 cells
2.6 × 10^4 cells	CCCCCC/C=C\CCCCCCCC(=O)OC [Palmitoleic acid methyl]	0.1 µg/10^6 cells
2.7 × 10^4 cells	CCCCCCC=CCCCCCCCCC(=O)OCC(COC(=O)CCCCCCCCC=CCCCCCC)OC(=O)CCCCCCCCC=CCCCCCC (stereo not drawn) [Triheptadecenoin]	1.0 µg/10^6 cells
2.5 × 10^4 cells	CCCC/C=C\CCCCCCCC(=O)OCC(COC(=O)CCCCCCC/C=C\CCCC)OC(=O)CCCCCCC/C=C\CCCC [Trimyristolein]	1.5 µg/10^6 cells
2.1 × 10^4 cells	CCCCCC/C=C\CCCCCCCC(=O)OCC(COC(=O)CCCCCCC/C=C\CCCCCC)OC(=O)CCCCCCC/C=C\CCCCCC [Tripalmitolein]	0.1 µg/10^6 cells
2.2 × 10^4 cells	CCCCC=CCCCCCCCCC(=O)OCC(COC(=O)CCCCCCCCC=CCCCC)OC(=O)CCCCCCCCC=CCCCC (stereo not drawn) [Tripentadecenoin]	0.2 µg/10^6 cells

Compound	Number of cells	Melanin levels
CCCCCCC=CCCCCCCCC(=O)O [9-Hexadecenoic acid]	3.2 × 10^4 cells	0.1 µg/10^6 cells
